Test results: article PMC10463303 (Veterinary Research, 2023)
In brackets after ≈: the same amount, converted by molar mass. Peptide text beside a SMILES is read from it.

Experiments:
Type in all cases: cell-based, Streptococcus suis serotype 2
Conditions in all cases: 18 h
SS2 strain SC19 = test system: SS2 strain SC19
Method: (§1) Tryptic soy broth (TSB; Beijing Land Bridge Technology Co., ltd, China) with 10% fetal bovine serum (FBS; Zhejiang Tianhang Biotechnology Co., ltd, China) were used as bacterial growth media for antimicrobial activity assays and tryptic soy agar (TSA; Beijing Land Bridge Technology Co., ltd, China) plates containing 10% FBS were used for the colony counting assay. Bacteria were cultured at 37 °C for 18 h in TSB or TSA agar plates.
(§2) Antimicrobial activity of cathelicidins was performed using a broth microdilution assay. Briefly, bacteria were maintained in TSB medium with 10% FBS at 37 °C and grown to mid-logarithmic growth phase before being tested. Then, 50 μL of peptides (0 to 80 μM) in triplicate were mixed with an equal volume of bacterial suspension (2 × 10^6 CFU/mL) in 96-well plates and incubated for 18 h at 37 ℃. The minimum inhibitory concentration (MIC) was defined as the lowest concentration of ones at which there was no visible bacteria growth. The minimum bactericidal concentration (MBC) was determined by colony counting. Fifty microliter mixed medium were removed from wells in which visible bacteria growth was not observed and then were plated out on TSA plates. After overnight culture at 37 °C, survival bacteria were counted.

[1] = test system: SS2 strains including SC19 and P1/7
Method: as §1, §2

SS2 strain P1/7 = test: Antimicrobial activity assay (broth microdilution MIC, MBC by colony counting)
Method: as §1, §2

[2] = broth microdilution, TSB + 10% FBS, peptides 0 to 80 μM in triplicate, bacterial suspension 2 × 10^6 CFU/mL, 37 °C, no visible growth

Compound | MBC toward SC19 (SS2 strain SC19) [µM] | MBC (anti-SS2 activity) [1] [µM] | MIC (anti-SS2 activity) [1] [µM] | MBC toward P1/7 (SS2 strain P1/7) [µM] | MIC toward SC19 (SS2 strain SC19; [2]) [µM] | MIC toward P1/7 (SS2 strain P1/7; [2]) [µM]
CC[C@H](C)[C@H](NC(=O)[C@H](CCCCN)NC(=O)[C@H](CCCNC(=N)N)NC(=O)[C@H](CC(C)C)NC(=O)[C@H](Cc1ccccc1)NC(=O)[C@H](CCCNC(=N)N)NC(=O)CNC(=O)[C@H](Cc1ccccc1)NC(=O)[C@@H](N)CCCNC(=N)N)C(=O)N[C@@H](CCCNC(=N)N)C(=O)N[C@@H](CCCNC(=N)N)C(=O)N[C@@H](Cc1ccccc1)C(=O)N[C@@H](CCCNC(=N)N)C(=O)N1CCC[C@H]1C(=O)N[C@@H](CCCCN)C(=O)N[C@H](C(=O)N[C@H](C(=O)N[C@H](C(=O)N[C@H](C(=O)N[C@H](C(=O)N[C@@H](CCC(N)=O)C(=O)NCC(=O)N[C@@H](CO)C(=O)N[C@@H](C)C(=O)N[C@@H](CCCNC(=N)N)C(=O)N[C@@H](Cc1ccccc1)C(=O)O)[C@@H](C)CC)[C@@H](C)O)[C@@H](C)CC)[C@@H](C)O)C(C)C [CATH-2] (H-RFGRFLRKIRRFRPKVTITIQGSARF-OH) | 20 (≈ 64.2 µg/mL) | 10 to 20 | 10 to 20 | 10 (≈ 32.1 µg/mL) | – | –
CC[C@H](C)[C@H](NC(=O)CNC(=O)[C@H](C)NC(=O)[C@H](C)NC(=O)[C@@H](NC(=O)[C@@H](NC(=O)[C@H](CC(N)=O)NC(=O)[C@@H](NC(=O)[C@H](C)NC(=O)[C@@H](NC(=O)[C@@H]1CCCN1C(=O)[C@@H](NC(=O)[C@H](CC(C)C)NC(=O)[C@@H]1CCCN1C(=O)[C@H](Cc1c[nH]c2ccccc12)NC(=O)[C@H](Cc1ccccc1)NC(=O)[C@H](CCCNC(=N)N)NC(=O)[C@H](CCCCN)NC(=O)[C@@H](NC(=O)[C@@H](N)CCCNC(=N)N)C(C)C)C(C)C)C(C)C)[C@@H](C)CC)[C@@H](C)O)C(C)C)C(=O)N[C@@H](CC(N)=O)C(=O)N[C@@H](CC(C)C)C(=O)N[C@@H](Cc1ccc(O)cc1)C(=O)N[C@@H](CCCCN)C(=O)N[C@@H](C)C(=O)N[C@H](C(=O)N[C@@H](CCCNC(=N)N)C(=O)N[C@@H](CCCNC(=N)N)C(=O)N[C@@H](CCCCN)C(=O)O)[C@@H](C)CC [CATH-3] (H-RVKRFWPLVPVAINTVAAGINLYKAIRRK-OH) | 20 (≈ 67 µg/mL) | 10 to 20 | 10 to 20 | 10 (≈ 33.5 µg/mL) | – | –
CC[C@H](C)[C@H](NC(=O)CNC(=O)[C@H](CC(N)=O)NC(=O)[C@H](CC(C)C)NC(=O)[C@H](Cc1c[nH]c2ccccc12)NC(=O)[C@H](CCC(=O)O)NC(=O)[C@H](Cc1c[nH]c2ccccc12)NC(=O)[C@@H](NC(=O)[C@H](CCCNC(=N)N)NC(=O)[C@@H](NC(=O)[C@H](Cc1c[nH]c2ccccc12)NC(=O)[C@H](Cc1c[nH]c2ccccc12)NC(=O)[C@H](CC(N)=O)NC(=O)[C@H](CCCNC(=N)N)NC(=O)[C@@H](NC(=O)[C@@H]1CCCN1)[C@@H](C)CC)[C@@H](C)CC)[C@@H](C)CC)C(=O)N[C@@H](CCCNC(=N)N)C(=O)N[C@@H](CCCCN)C(=O)N[C@@H](CCCNC(=N)N)C(=O)N[C@@H](CC(C)C)C(=O)N[C@@H](CCCNC(=N)N)C(=O)N[C@@H](CCC(N)=O)C(=O)N[C@@H](CCCNC(=N)N)C(=O)N[C@@H](CO)C(=O)N1CCC[C@H]1C(=O)N[C@@H](Cc1ccccc1)C(=O)N[C@@H](Cc1ccc(O)cc1)C(=O)N[C@H](C(=O)N[C@@H](CCCNC(=N)N)C(=O)NCC(=O)N[C@@H](Cc1c[nH]cn1)C(=O)N[C@@H](CC(C)C)C(=O)N[C@@H](CC(N)=O)C(=O)N[C@H](C(=O)N[C@H](C(=O)N[C@@H](CO)C(=O)N[C@H](C(=O)N1CCC[C@H]1C(=O)N[C@@H](CCC(N)=O)C(=O)N1CCC[C@H]1C(=O)O)[C@@H](C)O)[C@@H](C)O)C(C)C)C(C)C [CATH-B1] (H-PIRNWWIRIWEWLNGIRKRLRQRSPFYVRGHLNVTSTPQP-OH) | > 40 | > 40 | > 40 | > 40 | – | –
CC[C@H](C)[C@H](NC(=O)[C@H](CCCCN)NC(=O)[C@H](CCC(=O)O)NC(=O)CNC(=O)CNC(=O)[C@H](CCCCN)NC(=O)[C@H](CCCNC(=N)N)NC(=O)[C@H](CC(C)C)NC(=O)[C@H](CC(C)C)NC(=O)CN)C(=O)NCC(=O)N[C@@H](CCC(=O)O)C(=O)N[C@@H](CCCCN)C(=O)N[C@@H](CC(C)C)C(=O)N[C@@H](CCCCN)C(=O)N[C@@H](CCCCN)C(=O)N[C@H](C(=O)NCC(=O)N[C@@H](CCC(N)=O)C(=O)N[C@@H](CCCCN)C(=O)N[C@H](C(=O)N[C@@H](CCCCN)C(=O)N[C@@H](CC(N)=O)C(=O)N[C@@H](Cc1ccccc1)C(=O)N[C@@H](Cc1ccccc1)C(=O)N[C@@H](CCC(N)=O)C(=O)N[C@@H](CCCCN)C(=O)N[C@@H](CC(C)C)C(=O)N[C@H](C(=O)N1CCC[C@H]1C(=O)N[C@@H](CCC(N)=O)C(=O)N1CCC[C@H]1C(=O)N[C@@H](CCC(=O)O)C(=O)N[C@@H](CCC(N)=O)C(=O)O)C(C)C)[C@@H](C)CC)[C@@H](C)CC [CRAMP] (H-GLLRKGGEKIGEKLKKIGQKIKNFFQKLVPQPEQ-OH) | > 40 | > 40 | > 40 | > 40 | 40 | 40
CC[C@H](C)[C@H](NC(=O)[C@H](CCCCN)NC(=O)[C@H](CCCCN)NC(=O)[C@H](CC(C)C)NC(=O)[C@H](CCCNC(=N)N)NC(=O)[C@H](CCCCN)NC(=O)[C@H](CCCNC(=N)N)NC(=O)[C@@H](NC(=O)[C@H](CCCCN)NC(=O)[C@H](CCCCN)NC(=O)[C@H](CCCNC(=N)N)NC(=O)[C@H](CC(C)C)NC(=O)[C@H](CCCNC(=N)N)NC(=O)[C@H](CCCNC(=N)N)NC(=O)[C@H](Cc1ccccc1)NC(=O)[C@H](CCCNC(=N)N)NC(=O)CN)[C@@H](C)O)C(=O)NCC(=O)N[C@@H](CCCCN)C(=O)N[C@H](C(=O)N[C@@H](CC(C)C)C(=O)N[C@@H](CCCCN)C(=O)N[C@@H](Cc1c[nH]c2ccccc12)C(=O)N[C@H](C(=O)N1CCC[C@H]1C(=O)N1CCC[C@H]1C(=O)N[C@H](C(=O)N[C@H](C(=O)NCC(=O)N[C@@H](CO)C(=O)N[C@H](C(=O)N1CCC[C@H]1C(=O)N[C@@H](CC(C)C)C(=O)NCC(=O)N[C@@H](CS)C(=O)NCC(=O)O)[C@@H](C)CC)C(C)C)[C@@H](C)CC)[C@@H](C)CC)C(C)C [PMAP-36] (H-GRFRRLRKKTRKRLKKIGKVLKWIPPIVGSIPLGCG-OH) | 40 (≈ 166 µg/mL) | > 40 | > 40 | > 40 | – | –
CC[C@H](C)[C@H](NC(=O)[C@H](CCCNC(=N)N)NC(=O)[C@@H]1CCCN1C(=O)[C@@H]1CCCN1C(=O)[C@H](CC(C)C)NC(=O)[C@H](CCCNC(=N)N)NC(=O)[C@@H]1CCCN1C(=O)[C@@H]1CCCN1C(=O)[C@H](Cc1ccccc1)NC(=O)[C@H](Cc1ccccc1)NC(=O)[C@@H]1CCCN1C(=O)[C@@H]1CCCN1C(=O)[C@@H]1CCCN1C(=O)[C@H](CCCNC(=N)N)NC(=O)[C@@H]1CCCN1C(=O)[C@H](CCCNC(=N)N)NC(=O)[C@@H]1CCCN1C(=O)[C@H](CC(C)C)NC(=O)[C@H](Cc1ccc(O)cc1)NC(=O)[C@@H]1CCCN1C(=O)[C@@H]1CCCN1C(=O)[C@H](CCCNC(=N)N)NC(=O)[C@@H]1CCCN1C(=O)[C@H](CCCNC(=N)N)NC(=O)[C@H](CCCNC(=N)N)NC(=O)[C@@H](N)CCCNC(=N)N)C(=O)N1CCC[C@H]1C(=O)N1CCC[C@H]1C(=O)NCC(=O)N[C@@H](Cc1ccccc1)C(=O)N1CCC[C@H]1C(=O)N1CCC[C@H]1C(=O)N[C@@H](CCCNC(=N)N)C(=O)N[C@@H](Cc1ccccc1)C(=O)N1CCC[C@H]1C(=O)N1CCC[C@H]1C(=O)N[C@@H](CCCNC(=N)N)C(=O)N[C@@H](Cc1ccccc1)C(=O)N1CCC[C@H]1C(=O)O [PR-39] (H-RRRPRPPYLPRPRPPPFFPPRLPPRIPPGFPPRFPPRFP-OH) | > 40 | > 40 | > 40 | > 40 | – | –
